Here are results for 2 compounds from publication PMC8672067, “Inhibitors of the Bub1 spindle assembly checkpoint kinase: synthesis of BAY-320 and comparison with 2OH-BNPP1” (Royal Society Open Science, 2021).

In general, IC50 refers to the concentration at which inhibition is half-maximal. High values mean weaker potency, low ones greater potency.

In the test the target is T1, Bub1 (Homo sapiens, UniProt O43683).
T1 construct: full-length Bub1 with an N-terminal GFP tag (GFP-Bub1), purified from HEK-293 cells on beads
In words: in vitro kinase assay with purified GFP-Bub1 and H2A, H2ApT120 immunoblot, […] ATP. Type of test: biochemical.

T1 sequence (O43683 whole entry): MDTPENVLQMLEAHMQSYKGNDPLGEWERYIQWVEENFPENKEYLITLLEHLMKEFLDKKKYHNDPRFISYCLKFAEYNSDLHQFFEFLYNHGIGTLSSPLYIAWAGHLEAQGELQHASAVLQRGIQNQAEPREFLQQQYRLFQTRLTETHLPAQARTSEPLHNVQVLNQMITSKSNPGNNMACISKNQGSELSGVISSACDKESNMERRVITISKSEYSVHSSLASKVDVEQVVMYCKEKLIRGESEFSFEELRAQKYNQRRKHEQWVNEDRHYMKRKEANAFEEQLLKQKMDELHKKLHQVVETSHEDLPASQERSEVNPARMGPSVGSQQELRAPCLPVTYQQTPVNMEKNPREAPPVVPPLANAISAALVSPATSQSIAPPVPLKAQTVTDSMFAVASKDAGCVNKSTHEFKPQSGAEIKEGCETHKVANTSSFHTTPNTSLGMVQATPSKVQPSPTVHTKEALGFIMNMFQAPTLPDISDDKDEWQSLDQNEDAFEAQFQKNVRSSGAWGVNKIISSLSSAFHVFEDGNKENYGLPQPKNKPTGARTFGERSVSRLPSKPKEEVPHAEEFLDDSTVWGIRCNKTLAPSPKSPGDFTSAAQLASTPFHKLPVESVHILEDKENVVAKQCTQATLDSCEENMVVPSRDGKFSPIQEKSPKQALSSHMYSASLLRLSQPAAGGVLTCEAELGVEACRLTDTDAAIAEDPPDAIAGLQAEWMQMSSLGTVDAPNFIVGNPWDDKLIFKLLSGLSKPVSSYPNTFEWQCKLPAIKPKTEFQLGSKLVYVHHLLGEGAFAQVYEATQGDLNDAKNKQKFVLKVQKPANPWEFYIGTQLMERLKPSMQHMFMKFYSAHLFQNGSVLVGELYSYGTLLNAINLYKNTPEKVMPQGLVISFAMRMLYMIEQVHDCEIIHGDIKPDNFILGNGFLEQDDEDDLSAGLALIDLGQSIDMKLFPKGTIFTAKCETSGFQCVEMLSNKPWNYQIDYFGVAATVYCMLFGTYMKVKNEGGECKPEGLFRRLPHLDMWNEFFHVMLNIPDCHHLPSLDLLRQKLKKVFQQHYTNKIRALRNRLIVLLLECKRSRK

`CC(C)(C)n1nc(Cc2ccccc2O)c2c(N)ncnc21` [2OH-BNPP1] yielded an IC50 of 0.6 µM.

Compound `CCOc1cc(F)c(Cn2nc(-c3ncc(OC)c(Nc4ccncc4)n3)c(C)c2C2CC2)c(F)c1` [compound 11, 2-[5-Cyclopropyl-1-(4-ethoxy-2,6-difluorobenzyl)-4-methyl-1H-pyrazol-3-yl]-5-methoxy-N-(pyridine-4-yl)pyrimidin-4-amine] displayed an IC50 of 0.56 µM.
